Several values for one entry are separate records, joined by “and”; a condition that tells them apart may be missing. Identical values can stand only once.
Tested on: 233499-124-R-J3-PDC complex spheroid growth
Assay: Anticancer human tumor 233499-124-R-J3-PDC patient-derived colon adenocarcinoma cell line growth inhibition [AhR]
Details: for viability, T/C: stronger effect = lower value
In short: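 Agents were dosed in half-log steps down from roughly clinical Cmax, or from 10 microM where Cmax was unknown, alone and with AhR antagonists. Read-out: percent test/control growth of tumor spheroids containing HUVEC and MSC stromal cells.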

[1] = curve of first compound, second compound 0.1 µM
[2] = curve of first compound, second compound 0.316 µM
[3] = curve of first compound, second compound 1 µM
[4] = curve of first compound, second compound 3.16 µM
[5] = curve of first compound, second compound 10 µM
[6] = second compound 0.1 µM, first compound 0.0316 µM
[7] = second compound 0.1 µM, first compound 0.1 µM
[8] = second compound 0.1 µM, first compound 0.316 µM
[9] = second compound 0.1 µM, first compound 1 µM
[10] = second compound 0.1 µM, first compound 3.16 µM
[11] = second compound 0.1 µM, first compound 10 µM
[12] = second compound 0.316 µM, first compound 0.0316 µM
[13] = second compound 0.316 µM, first compound 0.1 µM
[14] = second compound 0.316 µM, first compound 0.316 µM
[15] = second compound 0.316 µM, first compound 1 µM
[16] = second compound 0.316 µM, first compound 3.16 µM
[17] = second compound 0.316 µM, first compound 10 µM
[18] = second compound 1 µM, first compound 0.0316 µM
[19] = second compound 1 µM, first compound 0.1 µM
[20] = second compound 1 µM, first compound 0.316 µM
[21] = second compound 1 µM, first compound 1 µM
[22] = second compound 1 µM, first compound 3.16 µM
[23] = second compound 1 µM, first compound 10 µM
[24] = second compound 3.16 µM, first compound 0.0316 µM
[25] = second compound 3.16 µM, first compound 0.1 µM
[26] = second compound 3.16 µM, first compound 0.316 µM
[27] = second compound 3.16 µM, first compound 1 µM
[28] = second compound 3.16 µM, first compound 3.16 µM
[29] = second compound 3.16 µM, first compound 10 µM
[30] = second compound 10 µM, first compound 0.0316 µM
[31] = second compound 10 µM, first compound 0.1 µM
[32] = second compound 10 µM, first compound 0.316 µM
[33] = second compound 10 µM, first compound 1 µM
[34] = second compound 10 µM, first compound 3.16 µM
[35] = second compound 10 µM, first compound 10 µM
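Note: spheroids exposed to agents for seven days before reading.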

COc1ccc([C@@H](O)c2cc(-c3ncnc4cc(N5CCOCC5)ccc34)c(F)cc2Cl)nn1 + Cc1ccccc1N=Nc1ccc(NC(=O)c2ccnn2C)c(C)c1
IC50 [1]: > 10 µM
IC50 [2]: > 10 µM
IC50 [3]: > 10 µM
IC50 [4]: > 10 µM
IC50 [5]: > 10 µM
viability, T/C [6]: 90.3%
viability, T/C [7]: 98.9%
viability, T/C [8]: 96.8%
viability, T/C [9]: 104%
viability, T/C [10]: 101%
viability, T/C [11]: 89.2%
viability, T/C [12]: 97.3%
viability, T/C [13]: 101%
viability, T/C [14]: 86.3%
viability, T/C [15]: 102%
viability, T/C [16]: 92%
viability, T/C [17]: 63.6%
viability, T/C [18]: 104%
viability, T/C [19]: 98.4%
viability, T/C [20]: 102%
viability, T/C [21]: 95.7%
viability, T/C [22]: 85.5%
viability, T/C [23]: 90.2%
viability, T/C [24]: 99.5%
viability, T/C [25]: 101%
viability, T/C [26]: 93.5%
viability, T/C [27]: 97.8%
viability, T/C [28]: 92.2%
viability, T/C [29]: 76.3%
viability, T/C [30]: 90.5%
viability, T/C [31]: 90.3%
viability, T/C [32]: 85.6%
viability, T/C [33]: 94.6%
viability, T/C [34]: 91.4%
viability, T/C [35]: 60.6%

O=C(C=Cc1cccc(S(=O)(=O)Nc2ccccc2)c1)NO + Cc1cncc(-c2nc(NCCc3c[nH]c4ccccc34)c3ncn(C(C)C)c3n2)c1
IC50 [1]: 5.27 µM
IC50 [2]: 5.76 µM
IC50 [3]: 5.46 µM
IC50 [4]: 3.1 µM
IC50 [5]: < 0.0316 µM
viability, T/C [6]: 103%
viability, T/C [7]: 96.8%
viability, T/C [8]: 111%
viability, T/C [9]: 122%
viability, T/C [10]: 82%
viability, T/C [11]: 9.95%
viability, T/C [12]: 84.6%
viability, T/C [13]: 98.7%
viability, T/C [14]: 94.4%
viability, T/C [15]: 105%
viability, T/C [16]: 107%
viability, T/C [17]: 5.83%
viability, T/C [18]: 84.6%
viability, T/C [19]: 97.7%
viability, T/C [20]: 88.8%
viability, T/C [21]: 103%
viability, T/C [22]: 95.5%
viability, T/C [23]: 1.53%
viability, T/C [24]: 78.6%
viability, T/C [25]: 78.2%
viability, T/C [26]: 80.8%
viability, T/C [27]: 93.2%
viability, T/C [28]: 49.4%
viability, T/C [29]: 3.18%
viability, T/C [30]: 7.06%
viability, T/C [31]: 6.48%
viability, T/C [32]: 7.01%
viability, T/C [33]: 2.38%
viability, T/C [34]: 1.78%
viability, T/C [35]: 0.38%

COc1cc(Nc2ncc3c(n2)-c2ccc(Cl)cc2C(c2c(F)cccc2OC)=NC3)ccc1C(=O)O + Cc1cncc(-c2nc(NCCc3c[nH]c4ccccc34)c3ncn(C(C)C)c3n2)c1
IC50 [1]: > 10 µM
IC50 [2]: > 10 µM
IC50 [3]: > 10 µM
IC50 [4]: > 10 µM
IC50 [5]: < 0.0316 µM
viability, T/C [6]: 81%
viability, T/C [7]: 71.7%
viability, T/C [8]: 81.5%
viability, T/C [9]: 100%
viability, T/C [10]: 89%
viability, T/C [11]: 84.2%
viability, T/C [12]: 84.8%
viability, T/C [13]: 56.9%
viability, T/C [14]: 83.2%
viability, T/C [15]: 76.9%
viability, T/C [16]: 75.6%
viability, T/C [17]: 82.5%
viability, T/C [18]: 78%
viability, T/C [19]: 68.4%
viability, T/C [20]: 77.8%
viability, T/C [21]: 77.9%
viability, T/C [22]: 70.1%
viability, T/C [23]: 87.6%
viability, T/C [24]: 60.5%
viability, T/C [25]: 50.9%
viability, T/C [26]: 76.8%
viability, T/C [27]: 67.2%
viability, T/C [28]: 58%
viability, T/C [29]: 71.7%
viability, T/C [30]: 8.18%
viability, T/C [31]: 22.4%
viability, T/C [32]: 26.9%
viability, T/C [33]: 10.4%
viability, T/C [34]: 29.2%
viability, T/C [35]: 39.9%

Nc1ccccc1NC(=O)c1ccc(CNC(=O)OCc2cccnc2)cc1 + Cc1cncc(-c2nc(NCCc3c[nH]c4ccccc34)c3ncn(C(C)C)c3n2)c1
IC50 [1]: 4.26 µM
IC50 [2]: 2.61 µM
IC50 [3]: 1.78 µM
IC50 [4]: 1.49 µM
IC50 [5]: < 0.0316 µM
viability, T/C [6]: 89.4%
viability, T/C [7]: 99.9%
viability, T/C [8]: 92.6%
viability, T/C [9]: 106%
viability, T/C [10]: 65.9%
viability, T/C [11]: 4.68%
viability, T/C [12]: 93.8%
viability, T/C [13]: 90%
viability, T/C [14]: 80.7%
viability, T/C [15]: 109%
viability, T/C [16]: 41.3%
viability, T/C [17]: 2.94%
viability, T/C [18]: 80.4%
viability, T/C [19]: 84.8%
viability, T/C [20]: 71.9%
viability, T/C [21]: 93.9%
viability, T/C [22]: 17.1%
viability, T/C [23]: 1.34%
viability, T/C [24]: 74%
viability, T/C [25]: 77.7%
viability, T/C [26]: 78.6%
viability, T/C [27]: 74.6%
viability, T/C [28]: 4.12%
viability, T/C [29]: 0.26%
viability, T/C [30]: 7.14%
viability, T/C [31]: 7.87%
viability, T/C [32]: 7.4%
viability, T/C [33]: 1.13%
viability, T/C [34]: 0.78%
viability, T/C [35]: 0.29%

CC[C@@]1(O)C(=O)OCc2c1cc1n(c2=O)Cc2cc3c(CN(C)C)c(O)ccc3nc2-1
viability, T/C (compound 0.000316 µM): 104% (2×) and 97.5%
viability, T/C (compound 0.001 µM): 107% and 86.7% and 95.5%
viability, T/C (compound 0.00316 µM): 94.7% and 92% and 87.1%
viability, T/C (compound 0.01 µM): 95% and 99.2% and 93.8%
viability, T/C (compound 0.0316 µM): 86.8% and 86.6% and 108%
viability, T/C (compound 0.1 µM): 92.3% and 83.2% and 89.9%
IC50 (curve of compound): > 0.1 µM

Nc1ccccc1NC(=O)c1ccc(CNC(=O)OCc2cccnc2)cc1 + Cc1ccccc1N=Nc1ccc(NC(=O)c2ccnn2C)c(C)c1
IC50 [1]: 5.08 µM
IC50 [2]: 5.64 µM
IC50 [3]: 5.44 µM
IC50 [4]: 5.35 µM
IC50 [5]: 4.81 µM
viability, T/C [6]: 116%
viability, T/C [7]: 93.3%
viability, T/C [8]: 106%
viability, T/C [9]: 129%
viability, T/C [10]: 80%
viability, T/C [11]: 7.02%
viability, T/C [12]: 116%
viability, T/C [13]: 103%
viability, T/C [14]: 119%
viability, T/C [15]: 113%
viability, T/C [16]: 93%
viability, T/C [17]: 7.54%
viability, T/C [18]: 116%
viability, T/C [19]: 107%
viability, T/C [20]: 117%
viability, T/C [21]: 130%
viability, T/C [22]: 86.4%
viability, T/C [23]: 9.07%
viability, T/C [24]: 112%
viability, T/C [25]: 106%
viability, T/C [26]: 118%
viability, T/C [27]: 113%
viability, T/C [28]: 86.8%
viability, T/C [29]: 6.35%
viability, T/C [30]: 93.4%
viability, T/C [31]: 108%
viability, T/C [32]: 105%
viability, T/C [33]: 109%
viability, T/C [34]: 74.4%
viability, T/C [35]: 7.59%
